US9896482B2, “Beta hairpin peptides having antiviral properties against Dengue virus” (CENTRO DE INGENIERÍA GENÉTICA Y BIOTECNOLOGÍA, priority 2014, dated 2018)
Where a SMILES comes first, the peptide text is derived from it. Bridges are numbered along the chain shown (N, C = ends). [ ]: non-standard residue; d: D form.

Key:
[1] = test system: DENV serotype 2 (NIBSC code S16803); experiment: Plaque reduction assay in Vero cells, DENV2; type: cell-based, Dengue virus; settings: DENV2, plaque reduction; NA = no detectable activity at concentrations lower than or equal to 100 μM; read-out: IC50, antiviral activity in Vero cells (50% inhibitory activity)
Protocol: The cells were grown in 24 well plates until the monolayer reached approximately 90% confluence, after which they were washed twice with MEM medium without Fetal Bovine Serum (FBS). Then, peptide dilutions were added and the cell-peptide mixtures were incubated typically for 1 hour at 37° C., followed by the addition of a DENV serotype 2 preparation (NIBSC code S16803) at a multiplicity of infection (m.o.i.) of 0.001. The cells were then incubated for 1 hour at 37° C., and once the period of incubation with the viral inoculum concluded, were washed again to remove unbound virions and incubated for 5 days at 37° C. in high density medium (MEM supplemented with non-essential amino acids, 1% FBS, 1% carboxymethylcellulose) in order to let viral plaques form. Afterwards, the cells were stained with 0.1% Naphtol Blue Black in 0.15 M sodium acetate. Two replicates per experimental point were used in each assay, and three independent determinations were performed for each sample.
Next, it was decided to compare the antiviral activity of peptides PHB4 and HDIII3CL against all four DENV serotypes, with the objective of comparing their respective IC50 values. This comparison was performed with plaque reduction assays on Vero cells, adding the viral inoculum for each serotype (DENV1, NIBSC code West Pac 74, DENV2, NIBSC, code S16803; DENV3, NIBSC, code CH53489; DENV 4, NIBSC code TVP360) at a m.o.i. of 0.001.

[2] = Toxicity in Vero cells (MTT assay and manual cell counting); type: cell-based; settings: ‡ non toxic at 1000 μM, read-out: Ctox50
Protocol: (§1) The toxicity of the beta hairpin peptides was assessed with the MTT (3-(4,5-dimethylthiazol-2-yl)-2,5-diphenyltetrazolium bromide, Invitrogen, USA) assay (Mosmann, T. (1983). J. Immunol. Methods 65, 55-63.), and by manual cell counting using a Neubauer chamber. Ninety-six well plates (Costar, USA) were seeded with 200 μL/well of a suspension containing Vero cells at 1×10^5 cells/mL and incubated until the monolayers reached approximately 90% confluence, typically for 18-24 h. After washing the cells twice with DMEM (Dulbecco's Modified Eagle Medium) medium, 50 μL/well were added of the peptide or additive dilutions to be evaluated (Triton ^X-100™ dissolved in PBS was used as positive toxicity control) and the plates were incubated at 37° C. under a 5% CO2 atmosphere for 2 or 24 h. Two different procedures were then employed to measure toxicity: • a) A 2 mg/mL solution of MTT in PBS was added (50 μL/well) and the plates were incubated for further 4 h at 37° C., 5% CO2. The medium was then removed, and 100 μL/well of DMSO were then added to solubilize formazan precipitates. Finally, the optical density (OD) of the supernatants at a wavelength of 540 nm was measured using a plate reader (Sensident Scan™, Merck, Germany). • b) The plates were washed with 200 μL/well of DMEM medium and then a trypsin solution (Sigma, USA) was added at 50 μL/well. After inactivating the trypsin by adding 150 μL/well of DMEM supplemented with 10% FBS, the cells were counted using the Trypan Blue (Gibco, USA) vital stain. The data were processed using the statistical software package Prism v5.3 (GraphPad, USA), using non-linear regression to fit them to a log10 (concentration) vs response curve.

Vero cells = experiment: as above; type: cell-based; settings: ‡ non toxic at 1000 μM
Protocol: as §1

sLRP1-CIV = target: T1, sLRP1-CIV (Homo sapiens, UniProt Q07954); experiment: Biacore (SPR) binding to immobilized sLRP1-CIV; settings: peptides at 20 μM
T1 construct: purchased R&D Systems, USA
Protocol: The interaction of the beta hairpin peptides with soluble fragments of the LRP1 receptor was studied by Surface Plasmon Resonance (SPR), using a Biacore X unit. In this technique, one of the interaction partners to be studied is immobilized on the surface of a chip, and the other interaction partner is dissolved in a solution that runs through the measurement cell on top of the interaction surface, under conditions of controlled flow. The association and dissociation of interacting partners is measured in resonance units (RU) and plotted, as a function of time, on charts known as ‘sensorgrams’. SPR, therefore, enables the experimenter to obtain detailed information about the interaction without having to label either interaction partner.
In this example, one channel of a CM5 chip (GE Healthcare, USA) was used to immobilize protein sLRP1-CIV on its surface at high density (see Table 6) and recombinant Human Serum Albumin (rHSA, Sigma-Aldrich, USA) was immobilized on the other channel.
Although it was decided to immobilize sLRP1-CIV at high density because these conditions make easier the detection of any potential interactions with compounds whose molecular weight is lower than that of average proteins (such as the peptides this experiment is intended to study), it must be stressed that in high-density surfaces, mass transfer limitations and the possibility of multivalent binding make difficult the accurate determination of kinetic constants. Therefore, and in order to characterize in greater detail the sLRP1-CIV binding surface, different RAP dilutions (0.6-20 μM) were loaded, and RU were registered under conditions of interaction equilibria (250 sec, see FIG. 13B). […] The data also indicate that immobilized sLRP1-CIV faithfully reproduces the previously reported characteristics of the LRP1-RAP interaction.
The binding of beta hairpin peptides to sLRP1-CIV was studied by loading 20 μM dilutions in running buffer of the different peptide variants onto the sLRP1-CIV chip characterized above. The high strength of the resulting signals is consistent with the binding of aggregated, rather than monomeric forms of the peptides. Therefore, the observed variations between different peptides may reflect either differences in the affinity of unitary peptide interactions or differences in aggregation numbers and/or geometries that lead to variations in the number of peptide units able to simultaneously engage immobilized sLRP1-CIV molecules in a multivalent manner. […] The difference between peptides HDIII3CL2 and HDIII3CL is that the former has an additional C-terminal lysine and has, therefore, a stronger cationic character, which may facilitate additional electrostatic interactions with the negatively charged LRP1 receptor.

Question: For `CC[C@H](C)[C@@H]1NC(=O)CNC(=O)[C@H]([C@@H](C)CC)NC(=O)[C@H](C(C)C)NC(=O)[C@H]([C@@H](C)CC)NC(=O)[C@H](CC(N)=O)NC(=O)[C@H](CO)NC(=O)[C@@H](N)CSSC[C@@H](C(=O)N[C@@H](CCCCN)C(=O)N[C@@H](CCCCN)C(=O)N[C@@H](CCCCN)C(N)=O)NC(=O)[C@H](Cc2c[nH]c3ccccc23)NC(=O)[C@H](CC(N)=O)NC(=O)[C@H]([C@@H](C)CC)NC(=O)[C@H](CCCCN)NC(=O)[C@H](CC(C)C)NC(=O)[C@H](C)NC(=O)[C@H](CCCCN)NC(=O)[C@H](CC(=O)O)NC(=O)CNC1=O` [HDIII3CL2, reference compound] (H-CSNIVIGIGDKALKINWCKKK-NH2; disulfide 1-18), which IC50 [1] is on record?
Answer: 20 µM

Question: And the CC50 [2]?
Answer: 1000 µM

Question: With `CC(C)[C@@H]1NC(=O)[C@H](CCCCN)NC(=O)[C@H](CCCCN)NC(=O)[C@H](CC(=O)O)NC(=O)[C@H]2CCCN2C(=O)[C@H](CCC(=O)O)NC(=O)[C@H]([C@@H](C)O)NC(=O)[C@H](Cc2c[nH]c3ccccc23)NC(=O)[C@H](CC(N)=O)NC(=O)[C@H](C(C)C)NC(=O)[C@@H](N)CSSC[C@@H](C(=O)N[C@@H](CCCCN)C(=O)N[C@@H](CCCCN)C(=O)N[C@@H](CCCCN)C(N)=O)NC(=O)[C@H](Cc2c[nH]c3ccccc23)NC(=O)[C@H](CC(N)=O)NC1=O` [PHB1] (H-CVNWTE[dP]DKKVNWCKKK-NH2; disulfide 1-14) as the molecule, how does the IC50 [1] read?
Answer: 75 µM

Question: And the Ctox50 (Vero cells)?
Answer: >>1000^‡ μM

Question: Which IC50 [1] does the source give for `CC(C)[C@@H]1NC(=O)[C@H](CCCCN)NC(=O)[C@H](Cc2c[nH]c3ccccc23)NC(=O)[C@H](CCCCN)NC(=O)[C@H]2CCCN2C(=O)[C@H](CCCNC(=N)N)NC(=O)[C@H]([C@@H](C)O)NC(=O)[C@H](Cc2c[nH]c3ccccc23)NC(=O)[C@H](Cc2ccc(O)cc2)NC(=O)[C@H](C(C)C)NC(=O)[C@@H](N)CSSC[C@@H](C(=O)N[C@@H](CCCCN)C(=O)N[C@@H](CCCCN)C(=O)N[C@@H](CCCCN)C(N)=O)NC(=O)[C@H](Cc2c[nH]c3ccccc23)NC(=O)[C@H](CC(N)=O)NC1=O` [PHB2] (H-CVYWTR[dP]KWKVNWCKKK-NH2; disulfide 1-14) here?
Answer: 12 µM

Question: What about the CC50 [2] of the same molecule?
Answer: 85 µM

Question: Which results are given for `CC(C)[C@H](NC(=O)[C@H](CC(N)=O)NC(=O)[C@H](Cc1c[nH]c2ccccc12)NC(=O)[C@@H](NC(=O)[C@H](Cc1c[nH]c2ccccc12)NC(=O)[C@H](CCCCN)NC(=O)[C@H](CC(N)=O)NC(=O)[C@@H](CCCCN)NC(=O)[C@H](CCC(=O)O)NC(=O)[C@H](Cc1c[nH]c2ccccc12)NC(=O)[C@H](CCCCN)NC(=O)[C@H](Cc1c[nH]c2ccccc12)NC(=O)[C@H](CC(N)=O)NC(=O)[C@H](Cc1c[nH]c2ccccc12)NC(=O)[C@@H](N)Cc1ccccc1)[C@@H](C)O)C(=O)N[C@@H](CCC(=O)O)C(=O)NCC(=O)NCC(=O)N[C@@H](CCCCN)C(=O)N[C@@H](CCCCN)C(=O)N[C@@H](CCCCN)C(N)=O` [PHB5] (H-FWNWKWE[dK]NKWTWNVEGGKKK-NH2)?
Answer: IC50 [1]: 17 µM; CC50 [2]: 259 µM

Question: With `CC(C)[C@H](NC(=O)[C@H](CC(N)=O)NC(=O)[C@H](Cc1c[nH]c2ccccc12)NC(=O)[C@@H](NC(=O)[C@H](Cc1c[nH]c2ccccc12)NC(=O)[C@H](CCCCN)NC(=O)[C@H](CC(N)=O)NC(=O)[C@H]1CCCN1C(=O)[C@H](CCC(=O)O)NC(=O)[C@H](Cc1c[nH]c2ccccc12)NC(=O)[C@H](CCCCN)NC(=O)[C@H](Cc1c[nH]c2ccccc12)NC(=O)[C@H](CC(N)=O)NC(=O)[C@H](Cc1c[nH]c2ccccc12)NC(=O)[C@@H](N)Cc1ccccc1)[C@@H](C)O)C(=O)N[C@@H](CCC(=O)O)C(=O)NCC(=O)NCC(=O)N[C@@H](CCCCN)C(=O)N[C@@H](CCCCN)C(=O)N[C@@H](CCCCN)C(N)=O` [PHB6] (H-FWNWKWE[dP]NKWTWNVEGGKKK-NH2) as the molecule, how does the IC50 [1] read?
Answer: 33 µM

Question: What about the CC50 [2] of the same molecule?
Answer: 411 µM

Question: With `CC[C@H](C)[C@@H]1NC(=O)[C@H]([C@@H](C)O)NC(=O)[C@H](C(C)C)NC(=O)[C@H](CC(N)=O)NC(=O)[C@H](C(C)C)NC(=O)[C@@H](N)CSSC[C@@H](C(=O)N[C@@H](CCCCN)C(=O)N[C@@H](CCCCN)C(=O)N[C@@H](CCCCN)C(N)=O)NC(=O)[C@H](Cc2c[nH]c3ccccc23)NC(=O)[C@H](CC(N)=O)NC(=O)[C@H](Cc2ccc(O)cc2)NC(=O)[C@H](CCCCN)NC(=O)[C@H](CCCCN)NC(=O)CNC(=O)[C@H](CC(N)=O)NC1=O` [PHB7] (H-CVNVTINGKKYNWCKKK-NH2; disulfide 1-14) as the molecule, how does the IC50 [1] read?
Answer: 79 µM

Question: And the CC50 [2]?
Answer: 1910 µM

Question: With `CC[C@H](C)[C@@H]1NC(=O)[C@H](Cc2ccccc2)NC(=O)[C@H](Cc2c[nH]c3ccccc23)NC(=O)[C@H](CC(N)=O)NC(=O)[C@H](Cc2ccc(O)cc2)NC(=O)[C@H](CCCCN)NC(=O)[C@H](CCCCN)NC(=O)CNC(=O)[C@H](CC(N)=O)NC(=O)[C@H]([C@@H](C)CC)NC(=O)[C@H]([C@@H](C)O)NC(=O)[C@H](C(C)C)NC(=O)[C@H](CC(N)=O)NC(=O)[C@H](C(C)C)NC(=O)[C@H](CCC(=O)O)NC(=O)[C@H]([C@@H](C)CC)NC(=O)[C@@H](N)CSSC[C@@H](C(=O)N[C@@H](CCCCN)C(=O)N[C@@H](CCCCN)C(=O)N[C@@H](CCCCN)C(N)=O)NC1=O` [PHB8] (H-CIEVNVTINGKKYNWFICKKK-NH2; disulfide 1-18) as the molecule, how does the IC50 [1] read?
Answer: 15 µM

Question: And the CC50 [2]?
Answer: 300 µM

Question: Which IC50 [1] does the source give for `CC[C@H](C)[C@@H]1NC(=O)[C@H](Cc2ccccc2)NC(=O)[C@H](Cc2c[nH]c3ccccc23)NC(=O)[C@H](CC(N)=O)NC(=O)[C@H](Cc2ccc(O)cc2)NC(=O)[C@H](CCCCN)NC(=O)[C@H](CCCCN)NC(=O)CNC(=O)[C@H](CC(N)=O)NC(=O)[C@H]([C@@H](C)CC)NC(=O)[C@H]([C@@H](C)O)NC(=O)[C@H](C(C)C)NC(=O)[C@H](Cc2ccc(O)cc2)NC(=O)[C@H](C(C)C)NC(=O)[C@H](CCC(=O)O)NC(=O)[C@H]([C@@H](C)CC)NC(=O)[C@@H](N)CSSC[C@@H](C(=O)N[C@@H](CCCCN)C(=O)N[C@@H](CCCCN)C(=O)N[C@@H](CCCCN)C(N)=O)NC1=O` [PHB9] (H-CIEVYVTINGKKYNWFICKKK-NH2; disulfide 1-18) here?
Answer: 7 µM

Question: What about the CC50 [2] of the same molecule?
Answer: 216 µM

Question: With HDIII3CLC- as the molecule, how does the “Binding to sLRP1-CIV by SPR, in words” value (sLRP1-CIV) read?
Answer: at most marginal interaction

Question: Which “Binding to sLRP1-CIV by SPR, in words” value (sLRP1-CIV) does the source give for HDIII3CLK- here?
Answer: detectable specific binding

Question: For HDIII3CLW-, which “Binding to sLRP1-CIV by SPR, in words” value (sLRP1-CIV) is on record?
Answer: detectable specific binding
